Series [1] deals with Streptavidin (Streptomyces avidinii) (UniProt P22629). Put plainly: Binding affinity to Streptomyces avidinii assessed as changes in protein fluorescence intensity by fluorescence spectral analysis method.
For series [2], the target named is Avidin (Gallus gallus) (UniProt P02701). Kind of series: Binding affinity to chick avidin assessed as quenching rate constant by fluorescence quenching spectral method.
Series [3] addresses Streptavidin (Streptomyces avidinii) (UniProt P22629). Kind of series: Binding affinity to Streptomyces avidinii assessed as quenching rate constant by fluorescence quenching spectral method.
The target in series [4] is Avidin (Gallus gallus) (UniProt P02701). Put plainly: Binding affinity to chick avidin assessed as changes in protein fluorescence intensity in presence of biotin by fluorescence spectral analysis method.
Another series has as its target Avidin (Gallus gallus, UniProt P02701). Put plainly: Binding affinity to chick avidin using fluorescence spectral analysis method based double reciprocal plot analysis. Particulars: read-out: Kd(app).
For the next series, the target named is Streptavidin (Streptomyces avidinii, UniProt P22629). Put plainly: Binding affinity to Streptomyces avidinii streptavidin using fluorescence spectral analysis method based double reciprocal plot analysis. Particulars: read-out: Kd(app).
Sequence of Streptavidin (P22629 whole entry): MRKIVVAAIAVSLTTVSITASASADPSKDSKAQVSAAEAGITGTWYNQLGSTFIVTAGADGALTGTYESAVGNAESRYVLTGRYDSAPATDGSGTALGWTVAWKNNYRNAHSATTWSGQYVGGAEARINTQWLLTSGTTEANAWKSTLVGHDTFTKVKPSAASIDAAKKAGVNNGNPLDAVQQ
The target of series [5] is Streptavidin (Streptomyces avidinii) (UniProt P22629). Kind of series: Binding affinity to Streptomyces avidinii assessed as changes in protein fluorescence intensity in presence of biotin by fluorescence spectral analysis method.
Series [6] addresses Avidin (Gallus gallus) (UniProt P02701). Put plainly: Binding affinity to chick avidin assessed as changes in protein fluorescence intensity by fluorescence spectral analysis method.
The target of another series is Albumin (Bos taurus, UniProt P02769). Put plainly: Binding affinity to BSA assessed as changes in tryptophan fluorescence intensity by fluorescence spectral analysis method. Conditions: cattle.
Sequence of Albumin (P02769 whole entry): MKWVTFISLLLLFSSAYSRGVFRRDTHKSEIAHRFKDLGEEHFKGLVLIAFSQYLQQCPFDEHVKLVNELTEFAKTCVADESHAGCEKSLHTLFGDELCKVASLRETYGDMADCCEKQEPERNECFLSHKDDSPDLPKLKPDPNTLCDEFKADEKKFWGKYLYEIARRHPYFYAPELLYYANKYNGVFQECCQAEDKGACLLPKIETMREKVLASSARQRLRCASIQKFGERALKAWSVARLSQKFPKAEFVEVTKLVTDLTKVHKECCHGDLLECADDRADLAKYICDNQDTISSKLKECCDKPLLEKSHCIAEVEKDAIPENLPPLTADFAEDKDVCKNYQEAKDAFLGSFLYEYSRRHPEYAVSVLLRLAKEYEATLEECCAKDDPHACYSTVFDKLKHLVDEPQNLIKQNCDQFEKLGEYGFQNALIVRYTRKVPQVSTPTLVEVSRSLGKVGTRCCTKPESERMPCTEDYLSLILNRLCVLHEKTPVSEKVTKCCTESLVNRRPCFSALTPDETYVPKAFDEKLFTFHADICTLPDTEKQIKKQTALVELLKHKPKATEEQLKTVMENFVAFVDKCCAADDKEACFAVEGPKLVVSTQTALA

Activity calls are given as the source filed them. The calls are words filed in the database; no cut-off is given here.

This is an account of results in ChEMBL document CHEMBL2202973, “Specific interactions between adenosine and streptavidin/avidin” (Bioorg Med Chem Lett, 2012).

Sequence of Streptavidin (Streptomyces avidinii) (P22629 whole entry): as the sequence (P22629 whole entry) above
Sequence of Avidin (Gallus gallus) (P02701 whole entry): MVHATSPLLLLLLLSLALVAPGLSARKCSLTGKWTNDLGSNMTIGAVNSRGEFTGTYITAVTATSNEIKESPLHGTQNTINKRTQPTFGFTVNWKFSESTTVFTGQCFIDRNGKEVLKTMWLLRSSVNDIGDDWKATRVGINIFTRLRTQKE
Sequence of Avidin (P02701 whole entry): as above

In the case of `O=C(O)CCCC[C@@H]1SC[C@@H]2NC(=O)N[C@@H]21`, the outcome in [1] was Active.
`Nc1ncnc2c1ncn2[C@@H]1O[C@H](CO)[C@@H](O)[C@H]1O` [ADENOSINE]: the figures for the Kq (on Avidin (Gallus gallus) [2]; in series [3]) were 1.28 ×10¹¹ L/mol/s and 8.5 ×10¹⁰ L/mol/s, respectively. The result (on Avidin (Gallus gallus) [4]; in series [5]) was inactive. Besides, the Kd on Avidin amounted to 117 µM; at Streptavidin, 168 µM. Besides, the result (at Avidin (Gallus gallus) [6]; in series [1]) was Active. Besides, at Albumin, the Activity entry is “Not Active”.
For `Nc1ncnc2c1ncn2[C@@H]1O[C@H](COP(=O)(O)OP(=O)(O)OP(=O)(O)O)[C@@H](O)[C@H]1O`, the outcome in [1] was inactive.
